{"source": "patent US20070203025A1", "about": "“Defoliant” (priority 2006, published 2007)", "key": {"[1]": {"test_system": "Cotton plants of the cultivar \"Carmen\"", "test": "Regrowth of cotton plants, by weighing the newly formed leaf material", "format": "in vivo", "conditions": "dose 35 g of a.i./ha, 1 l/ha Actirob B added, weight of newly formed leaf material", "experimental": "(§1) A water application rate of 300 l/ha was initially charged. The components herbicide and adjuvant were then added with stirring at the application rates and in the manner stated in table 1, such that a homogeneous spray liquor was formed. Here, the active ingredients were employed as suspension concentrates. The adjuvant used was ®Actirob B (Novance).\n(§2) Cotton seeds of the cultivar “Carmen” were sown at a depth of 1 cm and cultivated in a climatized chamber (16 h of light, temperature during the day: 26° C., at night: 20° C.) until they had reached the 8-10 leaf stage.\nThe plants were treated on a laboratory spray track with spray liquors of thidiazuron and thidiazuron with combination partners. The water application rate for the spray application was 300 l/ha. After the treatment, the plants were returned to the climatized chamber.\n4 weeks after the application, the regrowth of the plants was assessed by weighing the newly formed leaf material."}, "[2]": {"test_system": "Cotton plants of the cultivar \"Carmen\"", "test": "Leaf drop effect (defoliation) on cotton plants after spray application", "format": "in vivo", "conditions": "dose 35 g of a.i./ha, 1 l/ha Actirob B added, scale 0-100%", "experimental": "as §1, §2\nThe plants were treated on a laboratory spray track with spray liquors of thidiazuron and thidiazuron with combination partners. The water application rate for the spray application was 300 l/ha. […]\n2 weeks after the application, the leaf drop effect was evaluated according to a scale from 0 to 100%: • 0% =no noticeable effect compared to untreated plants • 100% =all leaves have dropped.\nOne week after the application, the leaf drop effect was evaluated according to a scale from 0 to 100%: • 0% =no noticeable effect compared to untreated plants • 100% =all leaves have dropped.\nOne week after the application, the leaf drop effect was evaluated according to a scale from 0 to 100%: • 0%=no noticeable effect compared to untreated plants • 100%=all leaves have dropped."}}, "data": [{"molecule": "O=C(Nc1ccccc1)Nc1cnns1", "note": "[TDZ, thidiazuron]", "values": [{"measurement": "Regrowth [g] 4 weeks after application", "setting": "[1]; Table 1", "result": 3.3, "unit": "g"}, {"measurement": "Regrowth [g] 4 weeks after application", "setting": "[1]; Table 3", "result": 2.4, "unit": "g"}, {"measurement": "Leaf drop [%] 2 weeks after application", "setting": "[2]; Table 1, 100% = all leaves have dropped", "result": 35, "unit": "%"}, {"measurement": "Leaf drop [%] 2 weeks after application", "setting": "[2]; Table 3", "result": 91, "unit": "%"}]}]}
